Counter-ions that a name gives are not always drawn.
System: hepatocytes
Assay: RNA-seq of hepatocytes treated with Phase III failure compounds
Procedure: RNA-seq was performed to determine the effects of the compounds on hepatocytes.
Significance was determined by the criteria of FPKM≥0.5, a log 2(fold-change)≥1, and a […].

Cn1cc(C2=C(c3cn(C4CCN(Cc5ccccn5)CC4)c4ccccc34)C(=O)NC2=O)c2ccccc21 [Enzastaurin]
RNA-seq results, CYP2B6 expression: 0.42 | RNA-seq results, CYP2C19 expression: 0.47 | RNA-seq results, CYP2D6 expression: −0.28 | RNA-seq results, CYP3A4 expression: 0.22 | RNA-seq results, CYP7B1 expression: 0.06 | RNA-seq results, CYP39A1 expression: −1.39 | RNA-seq results: CYP2B6 expression: 0.34 | RNA-seq results: CYP2C19 expression: 1.62 | RNA-seq results: CYP2D6 expression: −0.62 | RNA-seq results: CYP3A4 expression: 0.01 | RNA-seq results: CYP7B1 expression: 0.26 | RNA-seq results: CYP39A1 expression: −0.08 | significant modulation of expression of disease genes (RNA-seq, q≤0.05, hepatocytes, genes in the value or listed in the block): significantly (q≤0.05) modulate expression | effect on disease gene expression (RNA-seq, hepatocytes): effect on expression of too many disease genes | RNA-seq results: A1BG expression (gene A1BG, hepatocytes): 0.13 | RNA-seq results: AGTR1 expression (gene AGTR1, hepatocytes): −0.76 | RNA-seq results: AGXT expression (gene AGXT, hepatocytes): −0.27 | RNA-seq results: AHI1 expression (gene AHI1, hepatocytes): 0.25 | RNA-seq results: AMPD3 expression (gene AMPD3, hepatocytes): −0.35 | RNA-seq results: AMT expression (gene AMT, hepatocytes): −0.42 | RNA-seq results: ANGPTL3 expression (gene ANGPTL3, hepatocytes): −2.31 | RNA-seq results: ANKS4B expression (gene ANKS4B, hepatocytes): −0.71 | RNA-seq results: ANKS6 expression (gene ANKS6, hepatocytes): 0.10 | RNA-seq results: ANPEP expression (gene ANPEP, hepatocytes): −0.52 | RNA-seq results: AOC2 expression (gene AOC2, hepatocytes): 0.11 | RNA-seq results: APOA2 expression (gene APOA2, hepatocytes): −0.48 | RNA-seq results: APOA5 expression (gene APOA5, hepatocytes): −0.04 | RNA-seq results: APOB expression (gene APOB, hepatocytes): −0.19 | RNA-seq results: COG5 expression (gene COG5, hepatocytes): 0.35 | RNA-seq results: COG6 expression (gene COG6, hepatocytes): 0.23 | RNA-seq results: COL1A1 expression (gene COL1A1, hepatocytes): 0.34 | RNA-seq results: COX6A1 expression (gene COX6A1, hepatocytes): −1.30 | RNA-seq results: CP expression (gene CP, hepatocytes): 0.80 | RNA-seq results: CPS1 expression (gene CPS1, hepatocytes): 0.69 | RNA-seq results: CPT1A expression (gene CPT1A, hepatocytes): −0.10 | RNA-seq results: CPT2 expression (gene CPT2, hepatocytes): −0.15 | RNA-seq results: CROT expression (gene CROT, hepatocytes): −0.21 | RNA-seq results: CSPP1 expression (gene CSPP1, hepatocytes): −0.22 | RNA-seq results: CTC1 expression (gene CTC1, hepatocytes): 0.46 | RNA-seq results: CTDSP2 expression (gene CTDSP2, hepatocytes): 0.44 | RNA-seq results: CTH expression (gene CTH, hepatocytes): −0.17 | RNA-seq results: CTNS expression (gene CTNS, hepatocytes): 0.16 | RNA-seq results: CTSF expression (gene CTSF, hepatocytes): −0.63 | RNA-seq results: CTSK expression (gene CTSK, hepatocytes): 0.47 | RNA-seq results: CYB5A expression (gene CYB5A, hepatocytes): −0.56 | RNA-seq results: CYB5R3 expression (gene CYB5R3, hepatocytes): 0.02 | RNA-seq results: CYP27A1 expression (gene CYP27A1, hepatocytes): −0.43 | RNA-seq results: DAO expression (gene DAO, hepatocytes): −0.01 | RNA-seq results: DBT expression (gene DBT, hepatocytes): 0.28 | RNA-seq results: DCDC2 expression (gene DCDC2, hepatocytes): 0.20 | RNA-seq results: DCXR expression (gene DCXR, hepatocytes): −1.16 | RNA-seq results: FABP1 expression (gene FABP1, hepatocytes): −0.93 | RNA-seq results: FADD expression (gene FADD, hepatocytes): −0.53 | RNA-seq results: FAM111A expression (gene FAM111A, hepatocytes): 0.49 | RNA-seq results: FAM111B expression (gene FAM111B, hepatocytes): 0.47 | RNA-seq results: FAN1 expression (gene FAN1, hepatocytes): 0.43 | RNA-seq results: FARS2 expression (gene FARS2, hepatocytes): −0.55 | RNA-seq results: FASLG expression (gene FASLG, hepatocytes): 0.35 | RNA-seq results: FGA expression (gene FGA, hepatocytes): −0.10 | RNA-seq results: FGD1 expression (gene FGD1, hepatocytes): 0.29 | RNA-seq results: FGFR2 expression (gene FGFR2, hepatocytes): 0.75 | RNA-seq results: FIG4 expression (gene FIG4, hepatocytes): 0.08 | RNA-seq results: FIS1 expression (gene FIS1, hepatocytes): −1.07 | RNA-seq results: FTCD expression (gene FTCD, hepatocytes): −0.35 | RNA-seq results: FTH1 expression (gene FTH1, hepatocytes): −0.84 | RNA-seq results: FUCA1 expression (gene FUCA1, hepatocytes): −0.37 | RNA-seq results: FXN expression (gene FXN, hepatocytes): −0.10 | RNA-seq results: G6PC3 expression (gene G6PC3, hepatocytes): −0.60 | RNA-seq results: G6PC expression (gene G6PC, hepatocytes): 0.69 | RNA-seq results: G6PD expression (gene G6PD, hepatocytes): −0.23 | RNA-seq results: GALK1 expression (gene GALK1, hepatocytes): −0.94 | RNA-seq results: GALK2 expression (gene GALK2, hepatocytes): −0.51 | RNA-seq results: GATA6 expression (gene GATA6, hepatocytes): −0.26 | RNA-seq results: GATM expression (gene GATM, hepatocytes): 0.12 | RNA-seq results: GBA expression (gene GBA, hepatocytes): 0.04 | RNA-seq results: GBE1 expression (gene GBE1, hepatocytes): −0.07 | RNA-seq results: GCH1 expression (gene GCH1, hepatocytes): −0.12 | RNA-seq results: GCKR expression (gene GCKR, hepatocytes): 0.17 | RNA-seq results: GCLC expression (gene GCLC, hepatocytes): 0.11 | RNA-seq results: GGCX expression (gene GGCX, hepatocytes): 0.17 | RNA-seq results: GHR expression (gene GHR, hepatocytes): 0.73 | RNA-seq results: GJB2 expression (gene GJB2, hepatocytes): −0.07 | RNA-seq results: GOSH expression (gene GOSH, hepatocytes): −1.35 | RNA-seq results: RRM2B (gene RRM2B, hepatocytes): −0.08 | RNA-seq results: RSAD1 (gene RSAD1, hepatocytes): 0.26 | RNA-seq results: SAMHD1 (gene SAMHD1, hepatocytes): −0.34 | RNA-seq results: SC5D (gene SC5D, hepatocytes): 0.23 | RNA-seq results: SCARB1 (gene SCARB1, hepatocytes): −0.02 | RNA-seq results: SCN9A (gene SCN9A, hepatocytes): −1.60 | RNA-seq results: SDCCAG8 (gene SDCCAG8, hepatocytes): 0.08 | RNA-seq results: SEPN1 (gene SEPN1, hepatocytes): −0.51 | RNA-seq results: SERAC1 (gene SERAC1, hepatocytes): −0.28 | RNA-seq results: SERPINA1 (gene SERPINA1, hepatocytes): 0.21 | RNA-seq results: SERPING1 (gene SERPING1, hepatocytes): 0.06 | RNA-seq results: SERPINI1 (gene SERPINI1, hepatocytes): −0.50 | RNA-seq results: SETBP1 (gene SETBP1, hepatocytes): 0.08 | RNA-seq results: SFXN4 (gene SFXN4, hepatocytes): 0.11 | RNA-seq results: SLC10A1 (gene SLC10A1, hepatocytes): −0.60 | RNA-seq results: SLC10A3 (gene SLC10A3, hepatocytes): 0.28 | RNA-seq results: SLC10A5 (gene SLC10A5, hepatocytes): −0.77 | RNA-seq results: SLC10A7 (gene SLC10A7, hepatocytes): −0.46 | RNA-seq results: SLC11A2 (gene SLC11A2, hepatocytes): 0.16 | RNA-seq results: SLC19A2 (gene SLC19A2, hepatocytes): 0.28 | RNA-seq results: SLC19A3 (gene SLC19A3, hepatocytes): −0.67 | RNA-seq results: SLC22A1 (gene SLC22A1, hepatocytes): −0.34 | RNA-seq results: SLC22A5 (gene SLC22A5, hepatocytes): 0.26 | RNA-seq results: SLC25A1 (gene SLC25A1, hepatocytes): −0.20 | RNA-seq results: SLC25A10 (gene SLC25A10, hepatocytes): −0.01 | RNA-seq results: SLC25A12 (gene SLC25A12, hepatocytes): 0.10 | RNA-seq results: SLC25A13 (gene SLC25A13, hepatocytes): 0.11 | RNA-seq results: SLC25A15 (gene SLC25A15, hepatocytes): −0.31 | RNA-seq results: SLC25A19 (gene SLC25A19, hepatocytes): −0.01 | RNA-seq results: SLC25A20 (gene SLC25A20, hepatocytes): −0.96 | RNA-seq results: SLC25A32 (gene SLC25A32, hepatocytes): 0.18

Cc1ccc2c(c1)c1c(n2CCc2ccc(C)nc2)CCN(C)C1 [Latrepirdine (dihydrochloride) (64), Latrepirdine]
significant changes in gene expression (RNA-seq of Table 36, FPKM≥0.5, log 2(fold-change)≥1, q-value≤0.05): not observed to cause any significant changes in gene expression
